Paper PMC6661771, “Indole hybridized diazenyl derivatives: synthesis, antimicrobial activity, cytotoxicity evaluation and docking studies” (BMC Chemistry, 2019)
Values after ≈ are worked out from the molar mass of the structure shown. Like-named read-outs stand apart in the source and are kept apart here.

Tests used:
E. coli [1] = assay: MIC by tube dilution method; type: cell-based; settings: 24 h at 37 °C
S. aureus [2] = assay: MIC by tube dilution method; type: cell-based; settings: Staphylococcus aureus, 24 h at 37 °C, read-out: MIC
S. enterica [3] = assay: MIC by tube dilution method; type: cell-based; settings: Salmonella enterica, 24 h, 24 h at 37 °C, read-out: MIC
B. subtilis [4] = assay: MIC by tube dilution method; type: cell-based; settings: Bacillus subtilis, 24 h at 37 °C, read-out: MIC
K. pneumonia [5] = assay: MIC by tube dilution method; type: cell-based; settings: 24 h at 37 °C
A. niger [6] = assay: MIC by tube dilution method; type: cell-based; settings: Aspergillus niger, 168 h, 7 days at 25 °C, read-out: MIC
A. fumigatus [7] = assay: MIC by tube dilution method; type: cell-based; settings: Aspergillus fumigatus, 168 h, 7 days at 25 °C, read-out: MIC
E. coli [8] = assay: Minimum bactericidal concentration (MBC); type: cell-based; settings: Escherichia coli
S. aureus [9] = assay: Minimum bactericidal concentration (MBC); type: cell-based; settings: Staphylococcus aureus
S. enterica [10] = assay: Minimum bactericidal concentration (MBC); type: cell-based; settings: Salmonella enterica, read-out: MBC/MFC
Procedure: After MIC assessment, the indole derivatives (DS1–DS21), were additionally evaluated for MBC and MFC values. […] The 10–15 ml of nutrient agar and Sabouraud dextrose agar was added to the petri plates for bacterial and fungal samples respectively with gentle shaking of plates in order to mix the culture throughout the media. Allowed the media to solidify. The petri plates were then incubated for the predefined time and temperature as referenced already for bacterial and fungal cultures respectively. The plates were then investigated visually for the development of microbial growth. The MBC and MFC were stated as the minimum concentration of the compounds in aliquots showing no visual growth after incubation.

B. subtilis [11] = assay: Minimum bactericidal concentration (MBC); type: cell-based; settings: Bacillus subtilis
K. pneumonia [12] = assay: Minimum bactericidal concentration (MBC); type: cell-based; settings: Klebsiella pneumoniae
A. niger [13] = assay: Minimum fungicidal concentration (MFC); type: cell-based; settings: Aspergillus niger, read-out: MBC/MFC
A. fumigatus [14] = assay: Minimum fungicidal concentration (MFC); type: cell-based; settings: Aspergillus fumigatus, read-out: MBC/MFC
HCT 116 = assay: MTT cell proliferation assay; type: cell-based; settings: Homo sapiens, HCT-116, 48 h, HCT 116 colon cancer, 48 h of drug treatment
Procedure: (§1) The cell lines used in study were initially procured from the National Centre for Cell Sciences (NCCS), Pune, India, and maintained in DMEM. The cell line was cultured in 25 cm^2 tissue culture flask with DMEM supplemented with 10% FBS, sodium bicarbonate, L-glutamine, and antibiotic solution containing: streptomycin (100 μg/ml), penicillin (100 U/ml). Cultured cell line was kept at 37 °C in a humidified 5% CO2 incubator (VWR, USA).
(§2) The compounds found to have good antimicrobial potential were then screened for their cytotoxicity using MTT […]) assay. 1 × 10^4 cells/well were seeded in 100 µl DMEM/MEM, supplemented with 10% FBS in each well of 96-well microculture plates and incubated for 24 h at 37 °C in a CO2 incubator. After incubation, all the prepared/synthesized compounds were added to the cells at 10, 25, 50 and 100 µg concentrations for 48 h. After 48 h of drug treatment, 10 µl MTT (5 mg/ml) was added to each well and the plates were further incubated for 4 h. Then the supernatant from each well was carefully removed, formazan crystals were dissolved in 100 µl of DMSO and absorbance at 570 nm wavelength was recorded on an ELISA reader. The IC50 value was calculated using the linear regression equation i.e. Y = Mx + C. Here, Y = 50, M and C values were derived from the viability graph. The assay was performed in triplicate.

K562 = assay: MTT cell proliferation assay; type: cell-based; settings: Homo sapiens, K562 leukemia, 48 h of drug treatment
Procedure: as §1, §2

MDA MB 231 = assay: MTT cell proliferation assay; type: cell-based; settings: MDA MB 231 breast cancer, 48 h of drug treatment
Procedure: as §1, §2

HEK-293 = assay: MTT cell proliferation assay, normal cells; type: cell-based; settings: Homo sapiens, HEK293, HEK-293 normal cells, 48 h of drug treatment
Procedure: as §1, §2

[15] = Escherichia coli, 24 h, read-out: MIC
[16] = Klebsiella pneumoniae, 24 h, read-out: MIC
[17] = Homo sapiens, MDA-MB-231, 48 h, read-out: IC50

Structure (SMILES) | MIC (E. coli [1]; [15]) [µg/mL] | MIC (S. aureus [2]) [µg/mL] | MIC (S. enterica [3]) [µg/mL] | MIC (B. subtilis [4]) [µg/mL] | MIC (K. pneumonia [5]; [16]) [µg/mL] | MIC (A. niger [6]) [µg/mL] | MIC (A. fumigatus [7]) [µg/mL] | MBC (E. coli [8]) [µg/mL] | MBC (S. aureus [9]) [µg/mL] | MBC (B. subtilis [11]) [µg/mL] | MBC (K. pneumonia [12]) [µg/mL] | MFC (A. niger [13]) [µg/mL] | MFC (A. fumigatus [14]) [µg/mL] | IC50 (HCT 116) [µg/mL] | IC50 (K562) [µg/mL] | IC50 (MDA MB 231; [17]) [µg/mL] | melting point [°C] | MBC (S. enterica [10]; S. enterica, MBC) [µg/mL] | IC50 (HEK-293) [µg/mL] | further results
CCOC(=O)c1c(/N=C(/C)c2ccc(/N=N\c3c[nH]c4ccccc34)cc2)sc2c1CCCC2 [DS-2, Ethyl 2-((Z)-(1-(4-((Z)-(1H-indol-3-yl)diazenyl)phenyl)ethylidene)amino)-4,5,6,7-tetrahydrobenzo[b]thiophene-3-carboxylate] | 15.6 (≈ 33.2 µM) | 62.5 (≈ 133 µM) | 15.6 (≈ 33.2 µM) | 31.2 (≈ 66.4 µM) | 31.2 (≈ 66.4 µM) | 62.5 (≈ 133 µM) | 15.6 (≈ 33.2 µM) | 16.2 (≈ 34.5 µM) | 125 (≈ 266 µM) | 125 (≈ 266 µM) | 62.5 (≈ 133 µM) | 125 (≈ 266 µM) | 62.5 (≈ 133 µM) | 117 ± 4.28 (≈ 248 µM) | 140 ± 4.4 (≈ 298 µM) | 57.6 ± 3.68 (≈ 122 µM) | 260 to 265 | – | – | MBC (S. enterica [10]): 15.6 µg/mL (≈ 33.2 µM)
C/C(=N/c1nnc(-c2ccc([N+](=O)[O-])cc2Cl)s1)c1ccc(/N=N\c2c[nH]c3ccc([N+](=O)[O-])cc23)cc1 [DS-3, (Z)-5-(2-Chloro-4-nitrophenyl)-N-(1-(4-((Z)-(5-nitro-1H-indol-3-yl)diazenyl)phenyl)ethylidene)-1,3,4-thiadiazol-2-amine] | 3.9 (≈ 7.13 µM) | 62.5 (≈ 114 µM) | 31.2 (≈ 57.1 µM) | 31.2 (≈ 57.1 µM) | 1.95 (≈ 3.57 µM) | 62.5 (≈ 114 µM) | 15.6 (≈ 28.6 µM) | 31.2 (≈ 57.1 µM) | 62.5 (≈ 114 µM) | 62.5 (≈ 114 µM) | 31.2 (≈ 57.1 µM) | 125 (≈ 229 µM) | 62.5 (≈ 114 µM) | 110 ± 2.55 (≈ 201 µM) | 146 ± 2.11 (≈ 267 µM) | 46 ± 1.83 (≈ 84 µM) | 155 to 160 | 31.2 (≈ 57.1 µM) | 311.2 ± 1.76 (≈ 569 µM) | –
C/C(=N/c1c(C)n(C)n(-c2ccccc2)c1=O)c1ccc(/N=N\c2c[nH]c3ccc([N+](=O)[O-])cc23)cc1 [DS-6, 1,5-Dimethyl-4-((Z)-(1-(4-((Z)-(5-nitro-1H-indol-3-yl)diazenyl)phenyl)ethylidene)amino)-2-phenyl-1H-pyrazol-3(2H)-one] | 1.95 (≈ 3.95 µM) | 31.2 (≈ 63.3 µM) | 31.2 (≈ 63.3 µM) | 31.2 (≈ 63.3 µM) | 7.81 (≈ 15.8 µM) | 62.5 (≈ 127 µM) | 31.2 (≈ 63.3 µM) | 3.9 to 7.81 (≈ 7.9 to 15.8 µM) | 31.2 (≈ 63.3 µM) | 62.5 (≈ 127 µM) | – | 125 (≈ 253 µM) | 125 (≈ 253 µM) | 139 ± 4.29 (≈ 282 µM) | 188 ± 1.94 (≈ 380 µM) | 119 ± 1.92 (≈ 241 µM) | 170 to 175 | 31.2 (≈ 63.3 µM) | 257.8 ± 0.57 (≈ 522 µM) | –
C/C(=N/c1cc(Cl)ccc1Cl)c1ccc(/N=N\c2c[nH]c3ccc([N+](=O)[O-])cc23)cc1 [DS-10, (Z)-2,5-Dichloro-N-(1-(4-((Z)-(5-nitro-1H-indol-3-yl)diazenyl)phenyl)ethylidene)aniline] | 1.95 (≈ 4.31 µM) | 62.5 (≈ 138 µM) | 31.2 (≈ 69.1 µM) | 62.5 (≈ 138 µM) | 3.9 (≈ 8.62 µM) | 62.5 (≈ 138 µM) | 125 (≈ 276 µM) | 31.2 (≈ 69.1 µM) | 125 (≈ 276 µM) | 125 (≈ 276 µM) | – | 125 (≈ 276 µM) | 125 (≈ 276 µM) | 204.9 ± 1.62 (≈ 453 µM) | 199 ± 3.13 (≈ 439 µM) | 130 ± 3.51 (≈ 287 µM) | 210 to 215 | 62.5 (≈ 138 µM) | 274 ± 4.58 (≈ 606 µM) | –
C/C(=N/c1ccc(C(=O)O)cc1)c1ccc(/N=N\c2c[nH]c3ccccc23)cc1 [DS-14, 4-((Z)-(1-(4-((Z)-(1H-Indol-3-yl)diazenyl)phenyl)ethylidene)amino)benzoic acid] | 1.95 to 3.9 (≈ 5.1 to 10.2 µM) | 62.5 (≈ 163 µM) | 1.95 to 3.9 (≈ 5.1 to 10.2 µM) | 31.2 (≈ 81.7 µM) | 1.95 to 3.9 (≈ 5.1 to 10.2 µM) | 62.5 (≈ 163 µM) | 31.2 (≈ 81.7 µM) | – | 62.5 (≈ 163 µM) | 62.5 (≈ 163 µM) | 3.9 to 7.81 (≈ 10.2 to 20.4 µM) | 125 (≈ 327 µM) | 125 (≈ 327 µM) | – | 112 ± 3.64 (≈ 294 µM) | 19 to 65 (≈ 49.7 to 170 µM) | 205 to 210 | 7.81 (≈ 20.4 µM) | 244 ± 3.78 (≈ 638 µM) | MIC (E. coli [1]): 3.90 µg/mL (≈ 10.2 µM); MIC (K. pneumonia [5]): 1.95 µg/mL (≈ 5.1 µM); IC50 (MDA MB 231): 19.10 ± 1.43 µg/mL (≈ 49.9 µM)
C/C(=N/CCNc1cccc2ccccc12)c1ccc(/N=N\c2c[nH]c3ccccc23)cc1 [DS-20, (Z)-N1-(1-(4-((Z)-(1H-Indol-3-yl)diazenyl)phenyl)ethylidene)-N2-(naphthalen-1-yl)ethane-1,2-diamine] | 1.95 (≈ 4.52 µM) | 125 (≈ 290 µM) | 15.6 (≈ 36.2 µM) | 125 (≈ 290 µM) | 3.9 (≈ 9.04 µM) | 62.5 (≈ 145 µM) | 62.5 (≈ 145 µM) | – | 62.5 (≈ 145 µM) | 125 (≈ 290 µM) | 15.6 (≈ 36.2 µM) | 125 (≈ 290 µM) | 125 (≈ 290 µM) | – | 136 ± 4.74 (≈ 315 µM) | 19 to 65 (≈ 44 to 151 µM) | 110 to 115 | 31.2 (≈ 72.4 µM) | 233 ± 4.68 (≈ 539 µM) | IC50 (MDA MB 231): 20.95 ± 1.93 µg/mL (≈ 48.5 µM)
C/C(=N/c1nc2ccccc2s1)c1ccc(/N=N\c2c[nH]c3ccc([N+](=O)[O-])cc23)cc1 [DS-21, (Z)-N-(1-(4-((Z)-(5-Nitro-1H-indol-3-yl)diazenyl)phenyl)ethylidene)benzo[d]thiazol-2-amine] | 3.9 (≈ 8.85 µM) | 62.5 (≈ 142 µM) | 31.2 (≈ 70.9 µM) | 31.2 (≈ 70.9 µM) | 3.9 (≈ 8.85 µM) | 125 (≈ 284 µM) | 125 (≈ 284 µM) | – | 62.5 (≈ 142 µM) | 62.5 (≈ 142 µM) | – | 125 (≈ 284 µM) | 125 (≈ 284 µM) | 125 ± 1.33 (≈ 283 µM) | 158 ± 3.73 (≈ 359 µM) | 49.3 ± 4.15 (≈ 112 µM) | 130 to 135 | 31.2 (≈ 70.9 µM) | 142 ± 3.25 (≈ 322 µM) | –
